{
  "source": "patent US6844342B2",
  "about": "“Heterocyclic substituted 2-methyl-benzimidazole antiviral agents” (Bristol-Myers Squibb Company, priority 2000, dated 2005)",
  "tested_on": "respiratory syncytial virus Long strain",
  "test": "Antiviral activity against respiratory syncytial virus in HEp-2 cells (MTT cell protection)",
  "type": "cell-based",
  "experimental": "The antiviral activity of these compounds against respiratory syncytial virus was determined in HEp-2 (ATCC CCL 23) cells that were seeded in 96 well microtiter plates at 1.5×10^4 cells/100 μL/well in DMEM (Dulbecco's Modified Eagle's Medium) supplemented with penicillin, streptomycin, glutamine, and 10% fetal bovine serum. The cells were incubated overnight at 37° C., the culture medium was removed, and cells were infected (100 μL volume in medium containing 2% fetal bovine serum) with respiratory syncytial virus Long strain at 5000 plaque forming units/mL. The compounds, 100 μL at appropriate dilution, were added to the cells 1 hour post infection. After incubation for 4 days at 37° C., the plates were stained with MTT solution (3-[4,5-dimethlythiazol-2-yl]-2,5-diphenyltetrazolium bromide) and incubated for 4 hours at 37° C. The media was aspirated from the cells and 100 μL/well of acidified isopropanol (per liter: 900 mL isopropanol, 100 mL Triton X100, and 4 mL conc. HCl) was added. Plates were incubated for 15 minutes at room temperature with shaking, and an optical density (OD 540) reading at 540 nanometer (nm) was obtained. The optical density reading is proportional to the number of viable cells. The increase in the number of viable cells reflects the protective, antiviral activity of the compound. […]",
  "data": [
    {"smiles": "NC(=O)c1ncn([C@@H]2O[C@H](CO)[C@@H](O)[C@H]2O)n1", "note": "[Ribavirin]", "values": [
      {"measurement": "cell protection", "setting": "at 2.5 μg/mL (corresponding to 10.2 μM), HEp-2 cells, RSV Long strain", "value": 100, "unit": "%"},
      {"measurement": "EC50", "setting": "human respiratory syncytial virus, HEp-2 cells infected with RSV Long strain, compound added 1 hour post infection, 4 days at 37° C., read-out: EC50 (concentration that produces 50% cell protection)", "value": 3000, "unit": "nM"}
    ]}
  ]
}
